# From patent publication US12157730B2, “Heteroaryl derivative, method for producing same, and pharmaceutical composition comprising same as effective component” (VORONOI INC., priority 2019, dated 2024)
# Target: T1, Ba/F3 cell EGFR Exon20 ins NPH (Homo sapiens, UniProt P00533, INS773NPH)
# T1 construct: expressed in transfected cells; host or cells: Ba/F3
# Experiment: Ba/F3 cell proliferation suppression, EGFR Exon20 ins NPH
# Format: cell-based
# Conditions: GI50 class; Ba/F3 cell line with NPH inserted at Exon20 of EGFR; 72 hours
# Outline: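 Cells (3000–5000/well) plated 24 h before compound, 12-point 3-fold dilutions at 0.3 nM to 50 um final; Ba/F3 lines grown with 5 ng/ml IL-3. Viability by CellTiter-Glo luminescence after 72 h, growth ratio vs control, GI50 from curves; triplicate.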
row,Compound,Ba/F3 (NPH) Activity
1,"C=CC(=O)Nc1cc(Nc2cc(N3OCC[C@@H]3c3ccc(F)c(Cl)c3F)ncn2)c(OC)cc1N1CCC(N2CCN(C3COC3)CC2)CC1 [Example 202, N-(5-((6-((R)-3-(3-chloro-2,4-difluorophenyl)isoxazolidine-2-yl)pyrimidine-4-yl)amino)-4-methoxy-2-(4-(4-(oxetane-3-yl)piperazine-1-yl)piperidine-1-yl)phenyl)acrylamide]",A (GI50 < 50 nM)
2,"C=CC(=O)Nc1cc(Nc2cc(N3OCC[C@@H]3c3cccc(Cl)c3Cl)ncn2)c(OC)cc1N1CCC(N(C)C)CC1 [compound 476, N-(5-((6-((R)-3-(2,3-dichlorophenyl)isoxazolidine-2-yl)pyrimidine-4-yl)amino)-2-(4-(dimethylamino)piperidine-1-yl)-4-methoxyphenyl) acrylamide]",A (GI50 < 50 nM)
3,"C=CC(=O)Nc1cc(Nc2cc(N3OCC[C@@H]3c3cccc(C(F)(F)F)c3)ncn2)c(OC)cc1N1CCC(N2CCN(C)CC2)CC1 [compound 453, N-(4-methoxy-2-(4-(4-methylpiperazine-1-yl)piperidine-1-yl)-5-((6-((R)-3-(3-(trifluoromethyl)phenyl)isoxazolidine-2-yl)pyrimidine-4-yl)amino)phenyl)acrylamide]",A (GI50 < 50 nM)
4,"C=CC(=O)Nc1cc(Nc2cc(N3OCC[C@@H]3c3ccc(Cl)c(Cl)c3)ncn2)c(OC)cc1N1C[C@@H]2C[C@H]1CO2 [compound 612, N-(2-((1S,4S)-2-oxa-5-azabicyclo[2.2.1]heptane-5-yl)-5-((6-((R)-3-(3,4-dichlorophenyl)isoxazolidine-2-yl)pyrimidine-4-l)amino)-4-methoxyphenyl) acrylamide]",A (GI50 < 50 nM)
5,"C=CC(=O)Nc1cc(Nc2cc(N3OCC[C@H]3c3c(F)cccc3F)ncn2)c(OC)cc1N1CCC(N2C[C@@H](C)O[C@@H](C)C2)CC1 [compound 309, N-(5-((6-((S)-3-(2,6-difluorophenyl)isoxazolidine-2-yl)pyrimidine-4-yl)amino)-2-(4-((2S,6R)-2,6-dimethylmorpholino)piperidine-1-yl)-4-methoxyphenyl) acrylamide]",C (500 nM ≤ GI50 < 5000 nM)
6,"C=CC(=O)Nc1cc(Nc2cc(N3OCC[C@@H]3c3cccc(C#N)c3)ncn2)c(OC)cc1N1CCC(N2CC[C@@H](N(C)C)C2)CC1 [compound 492, N-(5-((6-((R)-3-(3-cyanophenyl)isoxazolidine-2-yl)pyrimidine-4-yl)amino)-2-(4-((R)-3-(dimethylamino)pyrolidine-1-yl)piperidine-1-yl)-4-methoxyphenyl) acrylamide]",B (50 nM ≤ GI50 < 500 nM)
7,"C=CC(=O)Nc1cc(Nc2cc(N3OCC[C@@H]3c3cccc(F)c3)ncn2)c(OC)cc1N1CC[C@@H](N2CCOCC2)C1 [compound 323, N-(5-((6-((R)-3-(3-fluorophenyl)isoxazolidine-2-yl)pyrimidine-4-yl)amino)-4-methoxy-2-((R)-3-morpholinopyrolidine-1-yl)phenyl) acrylamide]",A (GI50 < 50 nM)
8,"C=CC(=O)Nc1cc(Nc2cc(N3OCC[C@@H]3c3ccccc3)ncn2)c(OC)cc1N1CCC(N2CC[C@H](N(C)C)C2)CC1 [Example 286, N-(2-(4-((S)-3-(dimethylamino)pyrolidine-1-yl)piperidine-1-yl)-4-methoxy-5-((6-((R)-3-phenylisoxazolidine-2-yl)pyrimidine-4-yl)amino)phenyl) acrylamide]",A (GI50 < 50 nM)
9,"C=CC(=O)Nc1cc(Nc2cc(N3OCC[C@@H]3c3ccc4ccccc4c3)ncn2)c(OC)cc1N1CCN(C)CC1 [compound 509, N-(4-methoxy-2-(4-methylpiperazine-1-yl)-5-((6-((R)-3-(naphthalene-2-yl)isoxazolidine-2-yl)pyrimidine-4-yl)amino)phenyl)acrylamide]",B (50 nM ≤ GI50 < 500 nM)
10,"C=CC(=O)Nc1cc(Nc2cc(N3OCC[C@@H]3c3c(F)ccc(F)c3F)ncn2)c(OC)cc1N1CCC(N2C[C@@H]3C[C@H]2CO3)CC1 [compound 642, N-(2-(4-((1S,4S)-2-oxa-5-azabicyclo[2.2.1]heptane-5-yl)piperidine-1-yl)-4-methoxy-5-((6-((R)-3-(2,3,6-trifluorophenyl)isoxazolidine-2-yl)pyrimidine-4-yl)amino)phenyl)acrylamide]",A (GI50 < 50 nM)
11,"C=CC(=O)Nc1cc(Nc2cc(N3OCC[C@@H]3c3ccc(Cl)c(Cl)c3)ncn2)c(OC)cc1N1CCN(C2CCN(C)CC2)CC1 [compound 685, N-(5-((6-((R)-3-(3,4-dichlorophenyl)isoxazolidine-2-yl)pyrimidine-4-yl)amino)-4-methoxy-2-(4-(1-methylpiperidine-4-yl)piperazine-1-yl)phenyl) acrylamide]",A (GI50 < 50 nM)
12,"C=CC(=O)Nc1cc(Nc2cc(N3OCC[C@@H]3Cc3cccc(F)c3)ncn2)c(OC)cc1N1CCC(N2CCN(C3CC3)[C@H](C)C2)CC1 [compound 994, N-(2-(4-((R)-4-cyclopropyl-3-methylpiperazine-1-yl)piperidine-1-yl)-5-((6-((S)-3-(3-fluorobenzyl)isoxazolidine-2-yl)pyrimidine-4-yl)amino)-4-methoxyphenyl) acrylamide]",A (GI50 < 50 nM)
13,"C=CC(=O)Nc1cc(Nc2cc(N3OCC[C@@H]3c3ccc(F)cc3F)ncn2)c(OC)cc1N1CCC(N2CCN(C3CCCC3)CC2)CC1 [Example 205, N-(2-(4-(4-cyclopentylpiperazine-1-yl)piperidine-1-yl)-5-((6-((R)-3-(2,4-difluorophenyl)isoxazolidine-2-yl)pyrimidine-4-yl)amino)-4-methoxyphenyl) acrylamide]",A (GI50 < 50 nM)
14,"C=CC(=O)Nc1cc(Nc2cc(N3OCC[C@@H]3c3ccc(Cl)cc3F)ncn2)c(OC)cc1N1CC[C@@H](N(C)C)C1 [compound 456, N-(5-((6-((R)-3-(4-chloro-2-fluorophenyl)isoxazolidine-2-yl)pyrimidine-4-yl)amino)-2-((R)-3-(dimethylamino)pyrolidine-1-yl)-4-methoxyphenyl) acrylamide]",A (GI50 < 50 nM)
15,"C=CC(=O)Nc1cc(Nc2cc(N3OCC[C@@H]3Cc3cccc(N(C)C)c3)ncn2)c(OC)cc1N1CCC(N2C[C@H]3C[C@@H]2CO3)CC1 [compound 1047, N-(2-(4-((1R,4R)-2-oxa-5-azabicyclo [2.2.1]heptane-5-yl)piperidine-1-yl)-5-((6-((S)-3-(3-(dimethylamino)benzyl)isoxazolidine-2-yl)pyrimidine-4-yl)amino)-4-methoxyphenyl) acrylamide]",B (50 nM ≤ GI50 < 500 nM)
16,"C=CC(=O)Nc1cc(Nc2cc(N3OCC[C@@H]3c3cc(F)ccc3F)ncn2)c(OC)cc1N1C[C@@H](C)N(CC)[C@@H](C)C1 [compound 878, N-(5-((6-((R)-3-(2,5-difluorophenyl)isoxazolidine-2-yl)pyrimidine-4-yl)amino)-2-((3S,5R)-4-ethyl-3,5-dimethylpiperazine-1-yl)-4-methoxyphenyl) acrylamide]",A (GI50 < 50 nM)
17,"C=CC(=O)Nc1cc(Nc2cc(N3OCC[C@@H]3c3ccc(F)c(Cl)c3)ncn2)c(OC)cc1N1CCC(N2CCN(C3CC3)CC2)CC1 [Example 59, N-(5-((6-((R)-3-(3-chloro-4-fluorophenyl)isoxazolidine-2-yl)pyrimidine-4-yl)amino)-2-(4-(4-cyclopropylpiperazine-1-yl)piperidine-1-yl)-4-methoxyphenyl) acrylamide;]",A (GI50 < 50 nM)
18,"C=CC(=O)Nc1cc(Nc2cc(N3OCC[C@@H]3c3ccc(F)cc3F)ncn2)c(OC)cc1N1CCC(N(C)CCOC)CC1 [compound 387, N-(5-((6-((R)-3-(2,4-difluorophenyl)isoxazolidine-2-yl)pyrimidine-4-yl)amino)-4-methoxy-2-(4-((2-methoxyethyl)(methyl)amino)piperidine-1-yl)phenyl)acrylamide]",A (GI50 < 50 nM)
19,"C=CC(=O)Nc1cc(Nc2cc(N3OCC[C@@H]3c3cc(F)ccc3F)ncn2)c(OC)cc1N1CCC(N2CCN(CC3CC3)CC2)CC1 [Example 93, N-(2-(4-(4-(cyclopropylmethyl)piperazine-1-yl)piperidine-1-yl)-5-((6-((R)-3-(2,5-difluorophenyl)isoxazolidine-2-yl)pyrimidine-4-yl)amino)-4-methoxyphenyl) acrylamide]",A (GI50 < 50 nM)
20,"C=CC(=O)Nc1cc(Nc2cc(N3OCC[C@@H]3c3cccc(F)c3)ncn2)c(OC)cc1N1C[C@@H]2C[C@H]1CO2 [compound 832, N-(2-((1S,4S)-2-oxa-5-azabicyclo[2.2.1]heptane-5-yl)-5-((6-((R)-3-(3-fluorophenyl)isoxazolidine-2-yl)pyrimidine-4-yl)amino)-4-methoxyphenyl) acrylamide]",A (GI50 < 50 nM)
21,"C=CC(=O)Nc1cc(Nc2cc(N3OCC[C@@H]3c3ccc(F)c(Cl)c3)ncn2)c(OC)cc1N(C)CCN(C)C [compound 701, N-(5-((6-((R)-3-(3-chloro-4-fluorophenyl)isoxazolidine-2-yl)pyrimidine-4-yl)amino)-2-((2-(dimethylamino)ethyl)(methyl)amino)-4-methoxyphenyl) acrylamide]",A (GI50 < 50 nM)
22,"C=CC(=O)Nc1cc(Nc2cc(N3OCC[C@@H]3c3cccc(C#N)c3)ncn2)c(OC)cc1N1CCC(N2CCN(C(C)=O)CC2)CC1 [compound 434, N-(2-(4-(4-acetylpiperazine-1-yl)piperidine-1-yl)-5-((6-((R)-3-(3-cyanophenyl)isoxazolidine-2-yl)pyrimidine-4-yl)amino)-4-methoxyphenyl) acrylamide]",A (GI50 < 50 nM)
